From paper PMC8789054, “The nucleotide messenger (p)ppGpp is an anti-inducer of the purine synthesis transcription regulator PurR in Bacillus” (Nucleic Acids Research, 2021)

Columns and labels:
PurR [1] = biological target: T1, PurR (Bacillus subtilis, UniProt P37551); assay: X-ray co-crystal structure ([…] Å); DRaCALA with […]-ppGpp; assay type: binding
T1 construct: untagged B. subtilis PurR

PurR Y102A/F205A = biological target: T2, PurR Y102A/F205A (Bacillus subtilis, UniProt P37551, Y102A/F205A); assay: inhibition of PurR-DNA probe binding by PRPP (Supplementary Figure S15); assay type: biochemical
T2 sequence (P37551 1-285 Y102A/F205A): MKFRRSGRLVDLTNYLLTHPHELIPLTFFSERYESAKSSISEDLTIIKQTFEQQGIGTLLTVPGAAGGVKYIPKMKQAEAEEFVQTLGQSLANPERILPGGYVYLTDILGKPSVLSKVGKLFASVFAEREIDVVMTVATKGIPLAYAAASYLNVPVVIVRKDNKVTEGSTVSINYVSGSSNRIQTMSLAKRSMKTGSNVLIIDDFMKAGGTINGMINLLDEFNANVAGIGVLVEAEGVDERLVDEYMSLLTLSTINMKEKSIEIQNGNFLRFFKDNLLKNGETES

PurR Y102A/K207A = biological target: T3, PurR Y102A/K207A (Bacillus subtilis, UniProt P37551, Y102A/K207A); assay: as above; assay type: biochemical
T3 sequence (P37551 1-285 Y102A/K207A): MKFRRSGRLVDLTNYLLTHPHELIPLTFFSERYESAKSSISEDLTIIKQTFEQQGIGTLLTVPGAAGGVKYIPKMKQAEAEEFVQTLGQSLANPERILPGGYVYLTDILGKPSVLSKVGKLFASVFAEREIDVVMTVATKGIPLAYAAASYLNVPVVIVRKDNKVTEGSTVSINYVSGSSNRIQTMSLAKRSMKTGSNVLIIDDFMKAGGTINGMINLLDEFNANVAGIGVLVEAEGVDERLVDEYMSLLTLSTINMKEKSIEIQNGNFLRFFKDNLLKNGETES

PurR [2] = biological target: T1, PurR; assay: DRaCALA with […]-pppGpp; assay type: binding
[3] = biological target: the molecule itself; assay: crystal structure; untagged PurR at 20 mg/ml with 1 mM ppGpp, hanging drop vapor diffusion, 0.1 M MES pH 6.5, 18% PEG 1500, room temperature; space group P1, three PurR dimers in the asymmetric unit; 2.45 Å

## Nc1nc2c(ncn2[C@@H]2O[C@H](COP(=O)(O)OP(=O)(O)O)[C@@H](OP(=O)(O)OP(=O)(O)O)[C@H]2O)c(=O)[nH]1 [ppGpp]
PurR [1]
  Kd: ~4.4 µM

## O=P(O)(O)OC[C@H]1O[C@H](OP(=O)(O)OP(=O)(O)O)[C@H](O)[C@@H]1O [PRPP]
PurR Y102A/F205A
  inhibition of PurR-DNA probe binding by PRPP (Supplementary Figure S15): yet still bind to DNA probes and their binding to DNA is still inhibited by PRPP
PurR Y102A/K207A
  inhibition of PurR-DNA probe binding by PRPP (Supplementary Figure S15): yet still bind to DNA probes and their binding to DNA is still inhibited by PRPP

## Nc1nc2c(ncn2[C@@H]2O[C@H](COP(=O)(O)OP(=O)(O)OP(=O)(O)O)[C@@H](OP(=O)(O)OP(=O)(O)O)[C@H]2O)c(=O)[nH]1 [pppGpp]
PurR [2]
  Kd: ~4.4 µM

B1: Bacillus subtilis purine synthesis transcription regulator PurR (untagged) (natural protein, B. subtilis)
chain: MKFRRSGRLVDLTNYLLTHPHELIPLTFFSERYESAKSSISEDLTIIKQTFEQQGIGTLLTVPGAAGGVKYIPKMKQAEAEEFVQTLGQSLANPERILPGGYVYLTDILGKPSVLSKVGKLFASVFAEREIDVVMTVATKGIPLAYAAASYLNVPVVIVRKDNKVTEGSTVSINYVSGSSNRIQTMSLAKRSMKTGSNVLIIDDFMKAGGTINGMINLLDEFNANVAGIGVLVEAEGVDERLVDEYMSLLTLSTINMKEKSIEIQNGNFLRFFKDNLLKNGETES
notes: PurR, purine synthesis transcription regulator of Bacillus subtilis; Crystallised with 1 mM ppGpp; three dimers in the asymmetric unit; also called B. subtilis PurR; purine repressor PurR; source: E. coli BL21 T7 Express lacIq, purified (HisTrap FF, TEV cleavage, second HisTrap FF, Sephacryl S-200 gel filtration)
[3]
  binding result: binds
